# Where a SMILES comes first, the peptide text is derived from it. Bridges are numbered along the chain shown (N, C = ends). The star is where a group is joined. 5FAM = O=C1OC2(c3ccc(O)cc3Oc3cc(O)ccc32)c2ccc(C(=O)*)cc21
# Tests used:
# EBC-1 cells = test: Cellular uptake after pretreatment with endocytosis inhibitors, flow cytometry; type: cell-based, human; settings: peptide 5 μM 90 min 37 °C; for effect of CPZ (clathrin-mediated endocytosis inhibitor) on cellular uptake: CPZ 30 μM pretreatment 30 min
# Experimental: In order to study the effect of inhibitors, the peptide conjugates were administered at 5 μM when the cells were pretreated by the inhibitors for 30 min. The cells were then kept at 37 °C for 90 min. Macropinocytosis was inhibited using 5-(N-ethyl-N-isopropyl)amiloride (EIPA), clathrin-mediated endocytosis with chlorpromazine (CPZ), colchicine (Col) to assess the role of microtubules, and methyl-β-cyclodextrin (CyD) for the inhibition of caveolae/lipid-raft-mediated endocytosis.
# The CPPs can use several pathways to enter the cell. The dependence of the cellular uptake was measured for each Dabcyl-containing cyclic BBMB peptide using different inhibitors (Figure 7). The 5-(N-ethyl-N-isopropyl)amiloride (EIPA) inhibits macropinocytosis, chlorpromazine (CPZ) inhibits clathrin-mediated endocytosis, and colchicine (COL) was used to inhibit microtubule formation. Finally, methyl-beta-cyclodextrin (CyD) was used to inhibit caveolae-mediated endocytosis.
# Figure 7 Effect of endocytosis inhibitors on the cellular uptake of peptides. Before the treatment with the peptide conjugates (5 μM) for 90 min, the EBC-1 cells were pretreated with inhibitors EIPA (50 μM), CPZ (30 μM), CyD (5 mM), and COL (10 mM) for 30 min. Significant difference from the control was measured using Student’s t-test (* p < 0.05). Data represent the mean ± standard deviation (SD).
# [1] = tested on: EBC-1 human lung squamous cancer cells; test: Cellular uptake (internalization) of Cf-labelled peptides by flow cytometry; type: cell-based; settings: 90 min; for internalization compared with octaarginine (in words) / efficacy (internalization) of tetra- versus hexaarginine bicyclic derivative / cellular uptake compared with linear peptide Acyl-Met-(Arg)6-Met-(Gly)4-Lys(Cf): EBC-1 cells, 1, 5, 10 µM; for internalization relative to octaarginine (Cf-Arg8): Cf-labelled peptides at 1, 5, 10 µM, trypsin treatment, flow cytometry fluorescence intensity, mean ± SD
# Experimental: The internalization study of fluorophore-labeled peptides was performed on 24-well plates with 10^5 EBC-1 human lung squamous cancer cells (CRL-5889TM) per well. After 24 h incubation at 37 °C, the cells were treated with a serum-free medium as a negative control and with peptides in different concentrations (1, 5, 10 μM). After the incubation, 100 μL trypsin (0.25%) was used for 5–10 min to remove the excess peptides from the membranes and to detach the cells from the plates. By adding 800 µL of HPMI buffer (glucose, NaHCO3, NaCl, HEPES, KCl, MgCl2, CaCl2, Na2HPO4 × 2 H2O) containing 10% fetal bovine serum (FBS), the trypsin activity was stopped, and the cells were transferred to tubes for measurement. The cells were centrifuged at 216× g at 4 °C, and the supernatant was disposed of. The resuspended cells (in 250 μL HPMI) were used to measure their fluorescence intensity by flow cytometer (BDLSR II, BD Bioscience, San Jose, CA, USA). Data were analyzed with FACSDiVa 5.0 software (BD Bioscience, San Jose, CA, USA).
# The internalization of peptides was measured by flow cytometry on EBC-1 cells. The carboxyfluorescein-labeled peptides were studied at 1, 5, and 10 μM concentrations. The cells were treated for 90 min at 37 °C.
# [2] = Stability measurement in 25% human plasma; type: in vitro ADME; settings: 25% human plasma (sodium citrate), 37 °C, aliquots at 0, 1 and 24 h, RP-HPLC; preliminary experiment
# Experimental: The analysis was carried out based on the details described in Yuchen Hu et al.. The linear (Dabcyl-Met-(Arg)6-Met-(Gly)4-Lys(Cf)) and cyclic (Dabcyl-Cys-(Arg)6-Cys-(Gly)4-Lys(Cf) para BBMB) peptides were incubated with 25% human plasma at 37 °C. An aliquot of the peptide; human plasma mixture was taken at time points 0, 1, and 24 h. The samples were analyzed by RP-HPLC.
# The molecular weight of peptides and conjugates was determined with ESI-MS using Bruker Amazon SL (Germany). The samples were dissolved in water-acetonitrile solution (50:50) with 0.1% formic acid. The samples were directly injected with a syringe pump.
# Parameters: capillary voltage: 4 kV, nebulizer gas: 10 psi, dry gas: 4 L/min, heated capillary temperature: 250 °C.
# EBC-1 human lung squamous cancer cells (CRL-5889TM) were used for the in vitro analysis. These cells were a generous gift of Prof. […]
# Analytical RP-HPLC was performed on Exformma (Exformma Technology (ASIA) Co., Ltd, Hong Kong, China) HPLC system. […] Linear gradient elution (0 min 0% B; 2 min 0% B; 22 min 90% B) was used with eluent A (0.1% TFA in water) and eluent B (0.1% TFA in acetonitrile-water (80:20, v/v)) at 1mL/min flowrate, the peaks were detected at λ= 220 nm for both analytical and preparative RP-HPLC. […]
# Samples were taken in 0, 1 and 24 hour time periods and measured with analytical HPLC. […]
compound,measurement,setting,value
"Dabcyl-(Arg)6-Cys-(Gly)4-Cys-Lys(Cf) orto BBMB (sidechain bridge or staple) [Dabcyl cyclic peptide, orto BBMB, hexaarginine at N-terminus]",effect of CPZ (clathrin-mediated endocytosis inhibitor) on cellular uptake,EBC-1 cells,inhibits
Dabcyl-Cys-(Arg)4-Cys-(Arg)4-Cys-Lys(Cf) TBMB (bicyclic or more) [Dabcyl bicyclic octaarginine peptide on TBMB scaffold],internalization compared with octaarginine (in words),"[1]; 37 °C, flow cytometry",better internalization
same,internalization relative to octaarginine (Cf-Arg8),"[1]; EBC-1 cells, 37 °C",3 fold
"Dabcyl-(Arg)6-Cys-(Gly)4-Cys-Lys(Cf) para BBMB (sidechain bridge or staple) [Dabcyl cyclic peptide, para BBMB, hexaarginine at N-terminus]",effect of CPZ (clathrin-mediated endocytosis inhibitor) on cellular uptake,EBC-1 cells,inhibits
Acyl-Cys-(Arg)2-Cys-(Arg)2-Cys-Lys(Cf) TBMB (bicyclic or more) [acylated bicyclic tetraarginine peptide on TBMB scaffold],efficacy (internalization) of tetra- versus hexaarginine bicyclic derivative,[1]; flow cytometry,no difference
"Dabcyl-Cys-(Gly)4-Cys-(Arg)6-Lys(Cf) orto BBMB (sidechain bridge or staple) [Dabcyl cyclic peptide, thioether bonds to orto BBMB, hexaarginine at C-terminus]",effect of EIPA (macropinocytosis inhibitor) on cellular uptake,"EBC-1 cells; EIPA 50 μM pretreatment 30 min, Student's t-test p < 0.05",did not have an effect
"Dabcyl-Cys-(Arg)6-Cys-(Gly)4-Lys(Cf) para BBMB (sidechain bridge or staple) [Dabcyl cyclic peptide, para BBMB, hexaarginine in the cycle]",toxicity in the uptake experiment,"[1]; EBC-1 cells, 10 µM, 37 °C",showed toxicity
same,internalization relative to octaarginine (Cf-Arg8),"[1]; EBC-1 cells, 37 °C",5 fold
same,effect of CPZ (clathrin-mediated endocytosis inhibitor) on cellular uptake,EBC-1 cells,inhibits
same,stability in 25% human plasma,[2],stable
CC(=O)N[C@H]1CSSC[C@@H](C(=O)NCC(=O)NCC(=O)NCC(=O)NCC(=O)N[C@@H](CCCCNC(=O)c2ccc3c(c2)C(=O)OC32c3ccc(O)cc3Oc3cc(O)ccc32)C(N)=O)NC(=O)[C@H](CCCNC(=N)N)NC(=O)[C@H](CCCNC(=N)N)NC(=O)[C@H](CCCNC(=N)N)NC(=O)[C@H](CCCNC(=N)N)NC(=O)[C@H](CCCNC(=N)N)NC(=O)[C@H](CCCNC(=N)N)NC1=O [Acyl-Cys((Arg)6-Cys)-(Gly)4-Lys(Cf)] (Ac-CRRRRRRCGGGGK(5FAM)-NH2; disulfide 1-8),efficiency of cellular uptake compared with octaarginine at 5 µM,"[1]; EBC-1 cells, 5 µM, 37 °C, flow cytometry",the same
same,efficiency of cellular uptake compared with octaarginine at 10 µM,"[1]; EBC-1 cells, 10 µM, 37 °C, flow cytometry",almost half
same,cellular uptake compared with linear peptide Acyl-Met-(Arg)6-Met-(Gly)4-Lys(Cf),"[1]; 37 °C, flow cytometry",better cellular uptake
same,cellular uptake compared with linear peptide Acyl-Met-(Arg)6-Met-(Gly)4-Lys(Cf),"[1]; 37 °C, flow cytometry, listed as Acyl-Cys-(Arg)6-Cys-(Gly)4-Lys(Cf)",did increase the internalization
"Dabcyl-Cys-(Arg)6-Cys-(Gly)4-Lys(Cf) orto BBMB (sidechain bridge or staple) [Dabcyl cyclic peptide, orto BBMB, hexaarginine in the cycle]",internalization relative to octaarginine (Cf-Arg8),"[1]; EBC-1 cells, 37 °C",5 fold
same,effect of CPZ (clathrin-mediated endocytosis inhibitor) on cellular uptake,EBC-1 cells,inhibits
"Dabcyl-Cys((Arg)6-Cys)-(Gly)4-Lys(Cf) (disulfide) [Dabcyl cyclic peptide with disulfide bond, Cf-labelled]",internalization compared with octaarginine (in words),"[1]; 37 °C, flow cytometry",still better
same,internalization relative to octaarginine (Cf-Arg8),"[1]; EBC-1 cells, 37 °C",1.5–2 fold
Acyl-Cys-(Arg)3-Cys-(Arg)3-Cys-Lys(Cf) TBMB (bicyclic or more) [acylated bicyclic hexaarginine peptide on TBMB scaffold],efficacy (internalization) of tetra- versus hexaarginine bicyclic derivative,[1]; flow cytometry,no difference
